Source: patent US20240174697A1, “PH-ACTIVABLE FLUORESCENT PROBES FOR TARGETING CELL ORGANELLES” (Purdue Research Foundation, priority 2021, published 2024)

Experiments:
[1] = Absorption and fluorescence spectra at different pH solutions, pKa; type: physicochemical; settings: for pH at which high fluorescence is shown: pH buffer solutions; for emission maximum: excitation 480 nm; for emission maximum / absorption maximum: pH solutions of phosphate buffer, 1% DMSO; for pKa: PBS buffer at varying pH, 1% (v/v) DMSO, probe 10 μM, room temperature
Experimental: Spectrum recorded at room temperature in PBS buffer at varying pH with 1% (v/v) of DMSO, in all cases probe concentration=10 μM.
Next, we investigated the absorption and fluorescent properties of LysoShine 1, LysoShine 2, and MitoShine (FIG. 2). The LysoShine 1 in different pH solutions of phosphate buffer (1% DMSO in 1M PBS) has an absorption centered around 500 nm and emission maximum at 505 nm with 480 nm excitation. […] We tested the mitochondrial targeting property of MitoShine (max. absorption 505 nm, max. emission 535 nm, excitation 480 nm). […] We also tested the photophysical property of the important synthetic intermediate compound 10 (absorption maximum 505 nm, max, emission 510 nm at excitation 480 nm).

[2] = Solubility in aqueous medium / pH solutions; type: physicochemical; settings: for solubility upon addition of pH solutions: final DMSO concentration 1%
[3] = test system: BV2 microglia; test: LDH cytotoxicity assay on BV2 microglia; type: cell-based, mouse; settings: for cytotoxicity (LDH release): 2 hour, any tested doses (1, 5, 10 μM), BV2
Experimental: The dried fluorescent probes powders were resuspended in cell grade DMSO to prepare 5 mM stock solutions. This stock was used to make a 1, 5, or 10 μM dilution of the probe in cell culture media. The diluted probe solutions were filtered through 0.22 µm filters before adding to the cells.
The cytotoxicity of the fluorescent probes was determined using the Invitrogen™ CyQUANT™ LDH Cytotoxicity Assay kit which measures the release of Lactate dehydrogenase (LDH) from the dead and dying cells. The assay was performed per the manufacturer's protocol. Briefly, BV2 cells (5000 cells/100 μL/well) were seeded in a 96 well plate and cultured for 24 hours at 37° C. in a 5% CO2 incubator. After 24 hours, the media was removed, and the cells were treated with 1, 5, or 10 μM of the probes for 2 or 24 hours of incubation. Three additional wells were treated with the given lysis buffer for 45 minutes (positive control). After the corresponding incubation period, the total LDH release was measured using a fluorescent plate reader. The cells without any probe treatment correspond to spontaneous LDH release and were taken as negative control and the cells treated with the lysis buffer correspond to maximum LDH release. The percentage cytotoxicity of the probes was determined as follows: […]

[4] = test system: BV2 microglia; test: Confocal imaging, localization of probes in BV2 microglia; type: cell-based, mouse; settings: co-staining LysoTracker Red DND-99 / DAPI
Experimental: BV2 mouse microglia cells were generously gifted by Dr. Linda J. Van Eldik (University of Kentucky, USA). The BV-2 cell line was developed in the lab of Dr. Elisabetta Blasi at the University of Perugia, Italy. Cells were maintained at 37° C. and 5% CO2 in DMEM/Hams F-12 50/50 Mix supplemented with 10% Fetal Bovine Serum (FBS), 1% L-Glutamine, and 1% Penicillin/Streptomycin. For imaging experiments, 70,000 cells/2 mL/well were seeded on glass coverslips (Corning #12-553-450) in 6-well plates (Corning #08-772-1B). For flow cytometry experiments, 20,000 cells/0.5 mL were seeded in 24-well plates (Corning #3526).
(§1) The localization of the fluorescent probes was visualized using confocal microscopy. The cells were incubated with 10 μM probe for 2 hours and then the media was aspirated. The cells were then incubated with 100 nM LysoTracker (1 mM stock from Thermo #L7528) or with 0.5x MitoLite (1000-fold dilution from 500x stock of AAT Bioquest #22678) for 1.5 hours. The media was aspirated, and the cells were fixed with 4% paraformaldehyde for 10 mins followed by nuclear staining with 1 μM/mL DAPI for 5 mins. For BV2 microglia grown on glass coverslips, the coverslips were removed from the wells and transferred to glass slides with a drop of anti-fade reagent (Thermo Fisher Scientific #P36930). For primary mouse microglia grown in 35 mm glass-bottom dishes, the cells were treated with a few drops of the anti-fade reagent and taken for imaging. The images were captured on a Zeiss LSM 880 Upright Confocal microscope equipped with Plan-Apochromat 20x/0.8 objective.

[5] = test system: BV2 microglia; test: Cellular uptake of the fluorescent probes; type: in vitro ADME, mouse; settings: BV2 microglia (FIG. 7)
Experimental: FIG. 7 describes percent uptake efficiency of the fluorescent probes in BV2 microglia. Cellular uptake of the probe at different concentrations after two hours of incubation. The % uptake efficiency was determined as the percentage of probe taken up by cells out of the total amount of probe in the initial incubation solution. Bars depict n=3 data with SD.
Cellular uptake of the florescent probes was determined in-vitro as following: BV2 cells (20,000 cells/well) were seeded in a 96 well plate and cultured overnight at 37° C. in a 5% CO2 incubator. Next day, the media was removed, and the cells were treated with 1, 5, or 10 μM of the probes for 2 hours. After incubation, the supernatant was collected, and the absorbance was recorded at the respective absorbance maxima of the probe. This was compared with absorbance of the probe in media without cells. The percent cellular uptake was calculated as percentage of […]:
% Uptake Efficiency=1-[Asupernatant×100/Aprobe]

[6] = test system: primary mouse microglia; test: Flow cytometry analysis of probe fluorescence in live cells; type: cell-based; settings: 10 μM, 2 hours
From the text: FIGS. 3A-3E. […] Modal corresponds to a percentage of the maximum count. […] US Ctrl is unstained control. Gating strategy and flow plots with commercial dyes in supporting information.
A detailed protocol for the isolation and culture of primary microglia from adult mouse brains is previously described^2. Briefly, CD11^+ primary microglia were isolated from adult C57BL/6 mice aged 5-7 months of age (both male and female sexes) and cultured as follows. Mice were euthanized with CO2 following the PACUC guidelines, perfused brains were removed and cut into small pieces before homogenizing them in DPBS++with 0.4% DNase-I on the tissue dissociator at 37° C. After filtering the cells through a 70 μm filter, myelin was removed two times, first using gradient centrifugation with Percoll PLUS reagent followed by the use of myelin removal beads on the magnetic column separators. After myelin removal, CD11^+ cells were selected from the single cell suspension using the CD11^+ beads as per the manufacturer's instructions. […]
Primary mouse microglia were treated with 1, 5, or 10 μM fluorescent probes for 2 hours for the cells to uptake the probe. […] Around 10-20 thousand cells were gated from the live cells in order to analyze the cellular fluorescence signal corresponding to the LysoShine/Lysotracker or Mitoshine/MitoLite probes.

[7] = test system: primary mouse microglia; test: Confocal imaging, localization of probes in primary microglia; type: cell-based; settings: 10 μM probe 2 hours, co-staining LysoTracker / MitoLite / DAPI
Experimental: A detailed protocol for the isolation and culture of primary microglia from adult mouse brains is previously described^2. Briefly, CD11^+ primary microglia were isolated from adult C57BL/6 mice aged 5-7 months of age (both male and female sexes) and cultured as follows. Mice were euthanized with CO2 following the PACUC guidelines, perfused brains were removed and cut into small pieces before homogenizing them in DPBS++with 0.4% DNase-I on the tissue dissociator at 37° C. After filtering the cells through a 70 μm filter, myelin was removed two times, first using gradient centrifugation with Percoll PLUS reagent followed by the use of myelin removal beads on the magnetic column separators. After myelin removal, CD11^+ cells were selected from the single cell suspension using the CD11^+ beads as per the manufacturer's instructions. The CD11^+ cells were finally resuspended in microglia growth media, further diluted in TIC (TGF-β, IL-34, and cholesterol containing) media containing 2% FBS before seeding 0.1×10^6 cells/500 μL/well of a 24-well plate. The cells were maintained at 37° C. and 10% CO2 with half-media change every other day until the day of compound treatment (around 12-14 div). For confocal imaging experiments, around 50,000 cells/2 mL cells were sub-cultured at the center of 35 mm glass-bottom imaging dishes (FluoroDish™ #FD35).
as §1, with “For primary mouse microglia grown in 35 mm glass-bottom dishes, the cells were treated with a few drops of the anti-fade reagent and taken for imaging. The images were captured on a Zeiss LSM 880 Upright Confocal microscope equipped with Plan-Apochromat 20x/0.8 objective.” left out

| SMILES | pH at which high fluorescence is shown [1] | solubility in aqueous medium ([2]; aqueous medium) | fluorescence spectrum in pH buffers ([1]; pH buffers, solubility affected) | cytotoxicity to BV2 cells ([3]; BV2 cells) | emission maximum [1] [nm] | absorption maximum [1] | localization of the probe within cell organelles [4] | cell permeability [5] | solubility upon addition of pH solutions [2] | fluorescent intensity within the cells [6] | cytotoxicity (LDH release) [3] | pKa [1] | localization of the probe within cell organelles [7] |
| --- | --- | --- | --- | --- | --- | --- | --- | --- | --- | --- | --- | --- | --- |
| CCOC(=O)C1=C(C)C2=C(c3ccc(N(C)C)cc3)c3c(C)c(C(=O)OCC)c(C)n3[B-](F)(F)[N+]2=C1C [Compound 5, Diethyl 10-(4-(dimethylamino)phenyl)-5,5-difluoro-1,3,7,9-tetramethyl-5H-4λ^4, 5λ^4-dipyrrolo[1,2-c:2′,1′-f][1,3,2]diazaborinine-2,8-dicarboxylate] | ≤ 2.0 | – | – | – | – | – | – | – | – | – | – | – | – |
| CCOC(=O)C1=C(C)C2=C(c3ccc(N(C)C)cc3)c3c(C)c(C(=O)OCC)c(C=Cc4ccc(O)cc4)n3[B-](F)(F)[N+]2=C1C [Compound 6a, Diethyl (E)-10-(4-(dimethylamino)phenyl)-5,5-difluoro-3-(4-hydroxystyryl)-1,7,9-trimethyl-5H-414,514-dipyrrolo[1,2-c:2′,1′-f][1,3,2]diazaborinine-2,8-dicarboxylate] | – | sparingly soluble | did not generate a fluorescence spectrum | – | – | – | – | – | – | – | – | – | – |
| CCOC(=O)C1=C(C)C2=C(c3ccc(NC(=O)CBr)cc3)c3c(C)c(C(=O)OCC)c(C)n3[B-](F)(F)[N+]2=C1C [Compound 10, Diethyl 10-(4-(2-bromoacetamido)phenyl)-5,5-difluoro-1,3,7,9-tetramethyl-5H-414,514-dipyrrolo[1,2-c:2′,1′-f][1,3,2]diazaborinine-2,8-dicarboxylate] | less than 3 | – | – | not cytotoxic | 510 | 505 nm | colocalized with nuclei staining dye DAPI | cell permeable | – | – | – | – | – |
| CCOC(=O)C1=C(C)C2=C(c3ccc(NC(=O)CN(CC)CC)cc3)c3c(C)c(C(=O)OCC)c(C)n3[B-](F)(F)[N+]2=C1C [LysoShine 1, Diethyl 10-(4-(2-(diethylamino)acetamido)phenyl)-5,5-difluoro-1,3,7,9-tetramethyl-5H-4λ^4, 5λ^4-dipyrrolo[1,2-c:2′, 1′-f][1,3,2]diazaborinine-2,8-dicarboxylate] | 4 | – | – | – | 505 | around 500 nm | co-colocalization | – | maintains its solubility | higher fluorescent intensity than LysoShine 2 | did not show any cytotoxicity | 5.4 | co-localized with the LysoTracker dye within the acidic lysosomes |
| CCOC(=O)C1=C(C)C2=C(c3ccc(NC(=O)CNCCN4CCOCC4)cc3)c3c(C)c(C(=O)OCC)c(C)n3[B-](F)(F)[N+]2=C1C [LysoShine 2, Diethyl 5,5-difluoro-1,3,7,9-tetramethyl-10-(4-(2-((2-morpholinoethyl)amino)acetamido)phenyl)-5H-4λ^4, 5λ^4-dipyrrolo[1,2-c:2′,1′-f][1,3,2]diaza-borinine-2,8-dicarboxylate] | less than 6 | – | – | – | 512 | 500 nm | co-colocalization | – | maintains its solubility | – | did not show any cytotoxicity | 6.0 | co-localized with the LysoTracker dye within the acidic lysosomes |
